Test results reported in patent publication US12109218B2, “Compositions of grapiprant and methods for using the same” (ARATANA THERAPEUTICS, INC., priority 2014, dated 2024).

Assays:
[1] = tested on: onychectomy in cats; test: Onychectomy pain model in cats (Example 5); format: in vivo, cat; details: vs placebo
Description: The objective of this pilot study was to validate that this model/pain scoring system can differentiate positive from negative control animals in controlling the pain and inflammation of onychectomy and to test the effectiveness of a single dose of grapiprant in controlling the pain and inflammation associated with onychectomy in cats.
Following an acclimation period of 7, 8, or 9 days, a total of 30 adult cats were randomly divided between three treatment groups with ten animals assigned to each group. All animals were randomly assigned to a given surgery day such that within each day, an equal number of cats was from each treatment group. Within each day, the order of surgery was also randomized. […]
Surgical Procedure. […] During surgical procedures, each animal was monitored for at least heart rate and respiratory rate. […] Following surgery, each animal was periodically monitored until full recovery. […] Extubation time (time zero=T0) was recorded as the end of surgery.
All study animals were scored for sedation and analgesia the following schedule in Table 10. […]
Analgesia scores were given at specified time points during the study. […] Analgesia was scored by the same assessor during the first 8 hours of the study. […]
Results. The cat was evaluated as the experimental unit. Differences between treatment groups were evaluated at alpha of 0.05. […]

[2] = tested on: other human prostanoid receptor subtypes; details: cited from earlier work
[3] = Pharmacokinetics of capsule, suspension and tablets in dogs (Example 3); format: in vivo, dog; details: male dogs; for AUC(0-t) / AUC(0-inf) / Cmax / Tmax / half-life: dog, mean; for AUC(0-t): in vivo; for AUC(0-inf) / Cmax / Tmax / half-life: serum; for AUC0-∞/Dose / Cmax/Dose: dose-normalized mean
Method: The objective of this study was to compare the pharmacokinetic profile of several tablet formulations of grapiprant to capsule and aqueous methylcellulose suspension formulations of grapiprant with 20-mg doses. Appropriate amounts of the test article/excipient mixture were placed into gelatin capsules to provide each animal with 20 mg of grapiprant. As the grapiprant content in the excipient blend was 45% of the mixture weight, the total weight of the blend in each capsule was 0.0440 g. The weight tolerance was within ±0.005 g of the nominal capsule content weight.
For the aqueous suspensions (Group 2), the vehicle was 0.5% methyl cellulose (400 centipoise) in water. A 0.3-mg/mL suspension of grapiprant was prepared by adding grapiprant to a calibrated beaker and adding about 60-90% of the 0.5% aqueous methylcellulose to the beaker. A homogenizer was used to blend the material. A stir bar was added to the beaker, and the suspension was stirred for about 5 minutes. The stir bar was removed temporarily to adjust the volume with additional vehicle, and then the suspension was stirred for another 5 minutes before being transferred to a labeled dosing container. The formulation was continuously stirred at the time of dose administration.
Statistical analyses were conducted to determine differences in Cmax, Tmax, and AUCmax Values were normalized by mg/kg, and group means and standard deviations were calculated for numeric data. The actual administered doses ranged from 1.81 to 2.82 mg/kg, and averaged 2.2 mg/kg. No animal was found dead or deemed moribund during the study. All animals were normal at the scheduled observation time of 2 hours postdose.

[4] = 9-month oral toxicity study in dogs with 4-week recovery (Example 7)
Method: Four animals per sex were used in each dose group and two additional animals per sex in the 50 mg/kg dose group for recovery purposes. Clinical signs and food consumption were assessed daily. Bodyweight was recorded weekly. Ophthalmologic examination was performed on Weeks 20 and 38 of the dosing phase and Week 4 of the recovery phase. Electrocardiograms were recorded on Weeks 13, 26, and 38 of the dosing phase and Week 4 of the recovery phase. Hematology, coagulation, and serum chemistry parameters were monitored on Weeks 13, 26, and 39 of the dosing phase and Week 4 or 5 of the recovery phase. Urinalyses were performed on Week 37 of the dosing phase and Week 3 or 4 of the recovery phase. […] At the end of the dosing or recovery period, dogs were euthanized and necropsied. After gross examination, selected organs were weighed, and a comprehensive set of tissues was collected and processed for microscopic examination.

[5] = target: dog EP4 receptors (Canis lupus familiaris, UniProt A0A8I3MI92); details: dog EP4 receptor; read-out: Ki, inhibition of [3H]PGE binding; cited from earlier work
[6] = Day 0, Group 1: single oral 20 mg API in capsule
[7] = Day 0, Group 2: single oral 2 mg/kg, 0.3 mg/mL methylcellulose suspension
[8] = Day 0, Group 1: 20 mg API in capsule
[9] = Day 0, Group 2: methylcellulose suspension

Chain of dog EP4 receptors (A0A8I3MI92 1-492): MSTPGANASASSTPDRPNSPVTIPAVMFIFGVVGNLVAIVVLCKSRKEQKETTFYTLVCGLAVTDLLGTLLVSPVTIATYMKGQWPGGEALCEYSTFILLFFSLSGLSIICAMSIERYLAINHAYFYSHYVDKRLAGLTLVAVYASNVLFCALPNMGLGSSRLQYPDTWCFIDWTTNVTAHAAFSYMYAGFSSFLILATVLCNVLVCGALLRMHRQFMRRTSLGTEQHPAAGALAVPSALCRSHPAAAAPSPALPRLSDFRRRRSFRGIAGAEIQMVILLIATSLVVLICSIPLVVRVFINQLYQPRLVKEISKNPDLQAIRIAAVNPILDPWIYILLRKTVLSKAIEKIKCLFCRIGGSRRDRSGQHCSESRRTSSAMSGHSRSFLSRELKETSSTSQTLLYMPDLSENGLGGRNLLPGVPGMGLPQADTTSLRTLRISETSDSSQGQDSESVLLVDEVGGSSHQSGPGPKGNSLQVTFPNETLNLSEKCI

CCc1nc2c(C)nc(C)cc2n1-c1ccc(CCNC(=O)NS(=O)(=O)c2ccc(C)cc2)cc1 [grapiprant, N-{2-[4-(2-ethyl-4,6-dimethyl-1H-imidazo[4,5-c]pyridin-1-yl)phenyl]ethyl}-N′-[(4-methylphenyl)sulfonyl]urea]
sedation scores ([1]; 20 mg tablet Formulation A34 about 30 minutes before onychectomy): without an apparent effect on sedation scores | analgesia scores ([1]; oral tablet about 30 minutes before onychectomy (grapiprant: 20 mg tablet Formulation A34, Day 0 only; Onsior: 6 mg, Days 0-2)): decreased analgesia scores (reduced pain) | selectivity for EP4 over other human prostanoid receptor subtypes [2]: highly selective for the EP4 receptor over other human prostanoid receptor subtypes | AUC(0-t) [3, 6]: 1580 ng·h/mL | AUC(0-t) [3, 7]: 1650 ng·h/mL | AUC(0-inf) [3, 6]: 1640 ng·h/mL | Cmax [3, 6]: 804 ng/mL | Tmax [3, 6]: 1.08 h | half-life [3, 6]: 5.5 h | AUC(0-inf) [3, 7]: 1870 ng·h/mL | Cmax [3, 7]: 751 ng/mL | Tmax [3, 7]: 0.786 h | half-life [3, 7]: 4.1 h | AUC0-∞/Dose [3, 8]: 724 (hr*ng/mL)/(mg/kg) | Cmax/Dose [3, 8]: 359 (ng/mL)/(mg/kg) | AUC0-∞/Dose [3, 9]: 937 (hr*ng/mL)/(mg/kg) | Cmax/Dose [3, 9]: 376 (ng/mL)/(mg/kg) | decrease in mean albumin/globulin (A/G) ratio ([4]; 6 mg/kg, Week 39): −16% | histopathological finding ([4]; 50 mg/kg): mild regeneration of the mucosal epithelium of the ileum in one male | decrease in mean serum albumin vs. control value ([4]; 50 mg/kg, Weeks 26 and 39): up to −14% | accumulation ([4]; 1, 6, and 50 mg/kg/day dosing regimen): no accumulation of grapiprant was observed | level with no observed adverse effects ([4]; Beagle dogs, oral once daily, nine months): 6 mg/kg | individual decrease in albumin vs. pre-study ([4]; dose-related trend, 1-50 mg/kg): up to −41% | individual decrease in calcium ([4]; dose-related trend, 1-50 mg/kg): up to −18% | individual decrease in total protein ([4]; dose-related trend, 1-50 mg/kg): up to −30% | Ki [5]: 24.1 ± 2.7 nM
